# Results: PubChem BioAssay AID1918958 (Molecular Pharmacology Branch, DTP, NCI, 2023)
# Tested on: NCI-H196 complex spheroid viability
# Experiment: Anticancer human tumor NCI-H196 cell line growth inhibition [LSD1];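 further: spheroids exposed to agents for 7 days before readout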;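 on viability, T/C: 100% = DMSO vehicle control viability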
# Conditions: for IC50: curve of first compound; for viability, T/C: stronger effect = lower value
# How it was run: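 Multicellular complex spheroids of tumor cells with human endothelial cells (HUVEC) and mesenchymal stem cells; the LSD1 inhibitor iadademstat was combined with standard-of-care or investigational agents. Top concentration at or near clinical Cmax, half-log dilutions; final DMSO ≤0.25%.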
# [1] = second compound 0.1 µM, first compound 0.00949 µM
# [2] = second compound 0.1 µM, first compound 0.03 µM
# [3] = second compound 0.1 µM, first compound 0.0949 µM
# [4] = second compound 0.1 µM, first compound 0.3 µM
# [5] = second compound 0.1 µM, first compound 0.949 µM
# [6] = second compound 0.1 µM, first compound 3 µM
# [7] = second compound 0.316 µM, first compound 0.00949 µM
# [8] = second compound 0.316 µM, first compound 0.03 µM
# [9] = second compound 0.316 µM, first compound 0.0949 µM
# [10] = second compound 0.316 µM, first compound 0.3 µM
# [11] = second compound 0.316 µM, first compound 0.949 µM
# [12] = second compound 0.316 µM, first compound 3 µM
# [13] = second compound 1 µM, first compound 0.00949 µM
# [14] = second compound 1 µM, first compound 0.03 µM
# [15] = second compound 1 µM, first compound 0.0949 µM
# [16] = second compound 1 µM, first compound 0.3 µM
# [17] = second compound 1 µM, first compound 0.949 µM
# [18] = second compound 1 µM, first compound 3 µM
# [19] = second compound 3.16 µM, first compound 0.00949 µM
# [20] = second compound 3.16 µM, first compound 0.03 µM
# [21] = second compound 3.16 µM, first compound 0.0949 µM
# [22] = second compound 3.16 µM, first compound 0.3 µM
# [23] = second compound 3.16 µM, first compound 0.949 µM
# [24] = second compound 3.16 µM, first compound 3 µM
# [25] = second compound 10 µM, first compound 0.00949 µM
# [26] = second compound 10 µM, first compound 0.03 µM
# [27] = second compound 10 µM, first compound 0.0949 µM
# [28] = second compound 10 µM, first compound 0.3 µM
# [29] = second compound 10 µM, first compound 0.949 µM
# [30] = second compound 10 µM, first compound 3 µM
smiles,measurement,setting,value
NS(=O)(=O)OCC1CC(n2ccc3c(NC4CCc5ccccc54)ncnc32)CC1O (stereo not given) + NC1CC1c1ccc(-c2cccc(O)c2)cc1,IC50,second compound 0.1 µM,> 3 µM
same,IC50,second compound 0.316 µM,> 3 µM
same,IC50,second compound 1 µM,> 3 µM
same,IC50,second compound 3.16 µM,> 3 µM
same,IC50,second compound 10 µM,> 3 µM
same,"viability, T/C",[1],83.6%
same,"viability, T/C",[2],103%
same,"viability, T/C",[3],68%
same,"viability, T/C",[4],82.2%
same,"viability, T/C",[5],75.1%
same,"viability, T/C",[6],57.5%
same,"viability, T/C",[7],77.8%
same,"viability, T/C",[8],99.8%
same,"viability, T/C",[9],69.7%
same,"viability, T/C",[10],80.5%
same,"viability, T/C",[11],79.7%
same,"viability, T/C",[12],60.7%
same,"viability, T/C",[13],72.3%
same,"viability, T/C",[14],83.9%
same,"viability, T/C",[15],66.2%
same,"viability, T/C",[16],72%
same,"viability, T/C",[17],66%
same,"viability, T/C",[18],63.6%
same,"viability, T/C",[19],71.6%
same,"viability, T/C",[20],68.1%
same,"viability, T/C",[21],64.3%
same,"viability, T/C",[22],68.7%
same,"viability, T/C",[23],56%
same,"viability, T/C",[24],64.3%
same,"viability, T/C",[25],64.4%
same,"viability, T/C",[26],87.9%
same,"viability, T/C",[27],58.6%
same,"viability, T/C",[28],65.8%
same,"viability, T/C",[29],63%
same,"viability, T/C",[30],57%
COc1cc(C2c3cc4c(cc3C(OC3OC5COC(C)OC5C(O)C3O)C3COC(=O)C23)OCO4)cc(OC)c1O (stereo not given) + NC1CCC(NC2CC2c2ccccc2)CC1,IC50,second compound 0.1 µM,> 3 µM
same,IC50,second compound 0.316 µM,> 3 µM
same,IC50,second compound 1 µM,> 3 µM
same,IC50,second compound 3.16 µM,> 3 µM
same,IC50,second compound 10 µM,> 3 µM
same,"viability, T/C",[1],94.1%
same,"viability, T/C",[2],97.2%
same,"viability, T/C",[3],113%
same,"viability, T/C",[4],104%
same,"viability, T/C",[5],87.1%
same,"viability, T/C",[6],59.7%
same,"viability, T/C",[7],102%
same,"viability, T/C",[8],90.1%
same,"viability, T/C",[9],104%
same,"viability, T/C",[10],104%
same,"viability, T/C",[11],94.7%
same,"viability, T/C",[12],66.1%
same,"viability, T/C",[13],89.5%
same,"viability, T/C",[14],105%
same,"viability, T/C",[15],98.8%
same,"viability, T/C",[16],103%
same,"viability, T/C",[17],93.4%
same,"viability, T/C",[18],70.3%
same,"viability, T/C",[19],120%
same,"viability, T/C",[20],91.2%
same,"viability, T/C",[21],104%
same,"viability, T/C",[22],110%
same,"viability, T/C",[23],89.6%
same,"viability, T/C",[24],55.9%
same,"viability, T/C",[25],103%
same,"viability, T/C",[26],91.9%
same,"viability, T/C",[27],95.5%
same,"viability, T/C",[28],96.3%
same,"viability, T/C",[29],81.6%
same,"viability, T/C",[30],59.1%
COc1cc(Nc2ncc3c(n2)-c2ccc(Cl)cc2C(c2c(F)cccc2OC)=NC3)ccc1C(=O)O + NC1CC1c1ccc(-c2cccc(O)c2)cc1,IC50,second compound 0.1 µM,> 1 µM
same,IC50,second compound 0.316 µM,> 1 µM
same,IC50,second compound 1 µM,> 1 µM
same,IC50,second compound 3.16 µM,> 1 µM
same,IC50,second compound 10 µM,> 1 µM
same,"viability, T/C","second compound 0.1 µM, first compound 0.00316 µM",88.2%
same,"viability, T/C","second compound 0.1 µM, first compound 0.01 µM",92.9%
same,"viability, T/C","second compound 0.1 µM, first compound 0.0316 µM",105%
same,"viability, T/C","second compound 0.1 µM, first compound 0.1 µM",104%
same,"viability, T/C","second compound 0.1 µM, first compound 0.316 µM",121%
same,"viability, T/C","second compound 0.1 µM, first compound 1 µM",143%
same,"viability, T/C","second compound 0.316 µM, first compound 0.00316 µM",87.3%
same,"viability, T/C","second compound 0.316 µM, first compound 0.01 µM",97.6%
same,"viability, T/C","second compound 0.316 µM, first compound 0.0316 µM",109%
same,"viability, T/C","second compound 0.316 µM, first compound 0.1 µM",113%
same,"viability, T/C","second compound 0.316 µM, first compound 0.316 µM",120%
same,"viability, T/C","second compound 0.316 µM, first compound 1 µM",119%
same,"viability, T/C","second compound 1 µM, first compound 0.00316 µM",93%
same,"viability, T/C","second compound 1 µM, first compound 0.01 µM",115%
same,"viability, T/C","second compound 1 µM, first compound 0.0316 µM",118%
same,"viability, T/C","second compound 1 µM, first compound 0.1 µM",126%
same,"viability, T/C","second compound 1 µM, first compound 0.316 µM",116%
same,"viability, T/C","second compound 1 µM, first compound 1 µM",118%
same,"viability, T/C","second compound 3.16 µM, first compound 0.00316 µM",98.5%
same,"viability, T/C","second compound 3.16 µM, first compound 0.01 µM",104%
same,"viability, T/C","second compound 3.16 µM, first compound 0.0316 µM",108%
same,"viability, T/C","second compound 3.16 µM, first compound 0.1 µM",110%
same,"viability, T/C","second compound 3.16 µM, first compound 0.316 µM",124%
same,"viability, T/C","second compound 3.16 µM, first compound 1 µM",112%
same,"viability, T/C","second compound 10 µM, first compound 0.00316 µM",98.3%
same,"viability, T/C","second compound 10 µM, first compound 0.01 µM",114%
same,"viability, T/C","second compound 10 µM, first compound 0.0316 µM",112%
same,"viability, T/C","second compound 10 µM, first compound 0.1 µM",119%
same,"viability, T/C","second compound 10 µM, first compound 0.316 µM",125%
same,"viability, T/C","second compound 10 µM, first compound 1 µM",118%
